30 compounds from patent US8530648B2, “Diaza-spiro[5.5]undecanes” (Novartis AG, priority 2009, dated 2013) can be followed below.

One experiment addresses hOx1R (Homo sapiens (Human), UniProt O43613). Kind of experiment: Calcium accumulation in cells (FLIPR), hOx1R. The class given is cell-based. The settings on record: for Ki: inhibition of orexin A induced calcium accumulation, Cheng and Prusoff correction; for inhibition at 10 µM: measured at a concentration of 10 μM of compound. As to the method:
(§1) Calcium Accumulation in Cells (FLIPR):
(§2) Cells expressing human orexin 1 or human orexin 2 receptors, were seeded at 8,000 cells/well in 384 well black-walled clear bottom, poly-D-lysine coated plates. After 24 h, the medium was removed and cells were washed once with phosphate buffered saline and serum-deprived overnight in assay buffer (130 mM NaCl, 5.4 mM KCl, 1.8 mM CaCl2, 0.8 mM MgSO4, 0.9 mM NaH2PO4, 25 mM glucose, 20 mM HEPES, pH 7.4) containing bovine serum albumin (1% w/v).
(§3) On the day of the experiment, the cells seeded in black plates were treated with assay buffer containing the Ca^2+ sensitive fluorescent dye Fluo-4-AM (2 μM), and probenecid (0.1 mM). After 1 h plates were washed twice with, and resuspended in, assay buffer containing probenecid (0.1 mM) using a multi plate washer. […] Fluorescence measurements were then continued every 1 S for 120 S followed by every 4 S for 240 S.
(§4) The measurements were typically made in two sequences:
(§5) Compounds of formula I were tested usually in a concentration range from 10^−9 M to 10^−5 M.
(§6) In the second round, performed one hour later (to allow for equilibration), Orexin A was tested either in the absence (calibration curves, Orexin A agonist controls) or in the presence of compounds of formula I to determine antagonism.

The target of another experiment is hOx2R (Homo sapiens (Human), UniProt O43614). Kind of experiment: Calcium accumulation in cells (FLIPR), hOx2R. The class given is cell-based. Conditions: for Ki: inhibition of orexin A induced calcium accumulation, Cheng and Prusoff correction; for inhibition at 10 µM: measured at a concentration of 10 μM of compound. As to the method: as §1, §2, §3, §4, §5, §6
Sequence of hOx2R (O43614 whole entry): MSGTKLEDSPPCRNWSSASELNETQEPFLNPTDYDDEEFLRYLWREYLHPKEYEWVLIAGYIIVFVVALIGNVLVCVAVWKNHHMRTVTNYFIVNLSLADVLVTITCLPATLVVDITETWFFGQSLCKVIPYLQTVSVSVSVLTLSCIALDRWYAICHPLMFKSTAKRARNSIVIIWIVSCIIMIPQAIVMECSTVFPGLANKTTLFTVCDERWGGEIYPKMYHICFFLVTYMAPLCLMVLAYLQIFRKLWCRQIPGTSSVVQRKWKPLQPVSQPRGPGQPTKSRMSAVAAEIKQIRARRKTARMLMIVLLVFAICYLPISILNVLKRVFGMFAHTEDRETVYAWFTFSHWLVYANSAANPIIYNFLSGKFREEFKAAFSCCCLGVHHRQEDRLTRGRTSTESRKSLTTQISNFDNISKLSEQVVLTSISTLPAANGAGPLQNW

Sequence of hOx1R (O43613 whole entry): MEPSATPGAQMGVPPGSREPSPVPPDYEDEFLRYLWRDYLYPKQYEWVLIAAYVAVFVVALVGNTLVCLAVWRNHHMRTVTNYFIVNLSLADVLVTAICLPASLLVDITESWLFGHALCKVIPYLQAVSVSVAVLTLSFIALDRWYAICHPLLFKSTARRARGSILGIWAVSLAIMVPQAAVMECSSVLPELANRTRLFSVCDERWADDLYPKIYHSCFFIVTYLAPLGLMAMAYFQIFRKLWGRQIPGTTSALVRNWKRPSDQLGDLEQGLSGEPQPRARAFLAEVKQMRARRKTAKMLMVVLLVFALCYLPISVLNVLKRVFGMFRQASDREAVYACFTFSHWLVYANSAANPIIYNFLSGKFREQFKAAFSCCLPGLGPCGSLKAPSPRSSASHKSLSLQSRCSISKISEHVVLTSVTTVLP

One may read the Ki as the equilibrium dissociation constant of an inhibitor or competing ligand from its target. As for `O=C1N(Cc2cccc3c2CCN3)CCCC12CCN(c1cnc3ccccc3n1)CC2` [Example 126, 2-(indolin-4-ylmethyl)-9-(quinoxalin-2-yl)-2,9-diazaspiro[5.5]undecan-1-one], the Ki on hOx1R was 1250 nM; at hOx2R, 267 nM.
Usually inhibition stands for how much of the control response was suppressed. Consider `O=C1N(Cc2c[nH]c3ccccc23)CCCC12CCN(c1nc(-c3ccc(F)cc3)cs1)CC2` [Example 172, 2-((1H-indol-3-yl)methyl)-9-(4-(4-fluorophenyl)thiazol-2-yl)-2,9-diazaspiro[5.5]undecan-1-one], for which the inhibition at 10 µM was found to be 14% on hOx1R and 20% on hOx2R.
Regarding `O=C1N(Cc2cccnc2)CCCC12CCN(c1cnc3ccccc3n1)CC2` [Example 64, 2-(pyridin-3-ylmethyl)-9-(quinoxalin-2-yl)-2,9-diazaspiro[5.5]undecan-1-one], the inhibition at 10 µM on hOx1R was found to be 32%. Moreover, the Ki at hOx2R was 718 nM.
Turning to `Cn1nc(CN2CCCC3(CCN(c4cnc5ccccc5n4)CC3)C2=O)c2ccccc21` [Example 142, 2-((1-methyl-1H-indazol-3-yl)methyl)-9-(quinoxalin-2-yl)-2,9-diazaspiro[5.5]undecan-1-one], the Ki came to 925 nM at hOx1R and 212 nM on hOx2R.
Take `O=C1N(Cc2ccccn2)CCCC12CCN(c1cnc3ccccc3n1)CC2` [Example 62, 2-(pyridin-2-ylmethyl)-9-(quinoxalin-2-yl)-2,9-diazaspiro[5.5]undecan-1-one]: on hOx1R, the inhibition at 10 µM was 29%. Moreover, the Ki at hOx2R is 833 nM.
On to `Cc1cc(C)nc(CN2CCCC3(CCN(c4cnc5ccccc5n4)CC3)C2=O)c1` [Example 106, 2-((4,6-dimethylpyridin-2-yl)methyl)-9-(quinoxalin-2-yl)-2,9-diazaspiro[5.5]undecan-1-one], for which the inhibition at 10 µM at hOx1R stood at 35%. For the same compound, at hOx2R, the Ki was 1360 nM.
For `O=C1N(Cc2c[nH]c3ccccc23)CCCC12CCN(c1nnc(-c3ccccc3)s1)CC2` [Example 171, 2-((1H-indol-3-yl)methyl)-9-(5-phenyl-1,3,4-thiadiazol-2-yl)-2,9-diazaspiro[5.5]undecan-1-one], the Ki on hOx1R was determined as 2480 nM; on hOx2R, 786 nM.
For `Cn1nc2ccccc2c1CN1CCCC2(CCN(c3cnc4ccccc4n3)CC2)C1=O` [Example 76, 2-((2-methyl-2H-indazol-3-yl)methyl)-9-(quinoxalin-2-yl)-2,9-diazaspiro[5.5]undecan-1-one], at hOx1R, the inhibition at 10 µM worked out at 44%. Besides, the Ki on hOx2R was 559 nM.
Take `O=C1CCCC2(CCN(c3cnc4ccccc4n3)CC2)N1Cc1c[nH]c2ncccc12` [Example 141, 1-((1H-pyrrolo[2,3-b]pyridin-3-yl)methyl)-9-(quinoxalin-2-yl)-1,9-diazaspiro[5.5]undecan-2-one]: the Ki stood at 1980 nM on hOx1R and 404 nM at hOx2R.
In the case of `N#Cc1cccc(CN2CCCC3(CCN(c4cnc5ccccc5n4)CC3)C2=O)c1` [Example 92, 3-((1-oxo-9-(quinoxalin-2-yl)-2,9-diazaspiro[5.5]undecan-2-yl)methyl)benzonitrile], the Ki is 3060 nM at hOx1R and 649 nM at hOx2R.
As for `O=C1N(Cc2ccncc2)CCCC12CCN(c1cnc3ccccc3n1)CC2` [Example 67, 2-(pyridin-4-ylmethyl)-9-(quinoxalin-2-yl)-2,9-diazaspiro[5.5]undecan-1-one], the inhibition at 10 µM is 11% on hOx1R and 27% on hOx2R.
In the case of `O=C1N(Cc2c[nH]c3ccccc23)CCCC12CCN(c1nccc(-c3ccccc3)n1)CC2` [Example 154, 2-((1H-indol-3-yl)methyl)-9-(4-phenylpyrimidin-2-yl)-2,9-diazaspiro[5.5]undecan-1-one], the Ki is 646 nM on hOx1R and 115 nM on hOx2R.
`Cn1ncc2c(CN3CCCC4(CCN(c5cnc6ccccc6n5)CC4)C3=O)cccc21` [Example 108, 2-((1-methyl-1H-indazol-4-yl)methyl)-9-(quinoxalin-2-yl)-2,9-diazaspiro[5.5]undecan-1-one]: the Ki at hOx1R came out at 1400 nM; on hOx2R it was 196 nM.
On to `O=C1N(Cc2ccc3nonc3c2)CCCC12CCN(c1cnc3ccccc3n1)CC2` [Example 53, 2-(benzo[c][1,2,5]oxadiazol-5-ylmethyl)-9-(quinoxalin-2-yl)-2,9-diazaspiro[5.5]undecan-1-one], for which the inhibition at 10 µM at hOx1R amounted to 37%; on hOx2R it was 24%.
As for `Cc1ccccc1CN1CCCC2(CCN(c3cnc4ccccc4n3)CC2)C1=O` [Example 19, 2-(2-methylbenzyl)-9-(quinoxalin-2-yl)-2,9-diazaspiro[5.5]undecan-1-one], the inhibition at 10 µM at hOx1R was 12%. In addition, the Ki on hOx2R stood at 495 nM.
For the compound `O=C1N(Cc2cncn2Cc2ccccc2)CCCC12CCN(c1cnc3ccccc3n1)CC2` [Example 118, 2-((1-benzyl-1H-imidazol-5-yl)methyl)-9-(quinoxalin-2-yl)-2,9-diazaspiro[5.5]undecan-1-one], the Ki was found to be 1840 nM on hOx1R and 197 nM on hOx2R.
On the same counts, the results for `O=C1N(Cc2cccc(Cl)c2)CCCC12CCN(c1nccc(-c3ccccc3)n1)CC2` [Example 29, 2-(3-chlorobenzyl)-9-(4-phenylpyrimidin-2-yl)-2,9-diazaspiro[5.5]undecan-1-one] are 1700 nM and 614 nM.
In the case of `O=C1N(Cc2cc(-n3cccn3)ccn2)CCCC12CCN(c1cnc3ccccc3n1)CC2` [Example 127, 2-((4-(1H-pyrazol-1-yl)pyridin-2-yl)methyl)-9-(quinoxalin-2-yl)-2,9-diazaspiro[5.5]undecan-1-one], the Ki at hOx1R amounted to 2340 nM; at hOx2R it was 299 nM.
On the same counts, the results for `O=C1N(Cc2c[nH]c3ccccc23)CCCC12CCN(c1nc3ccccc3s1)CC2` [Example 52, 2-((1H-indol-3-yl)methyl)-9-(benzo[d]thiazol-2-yl)-2,9-diazaspiro[5.5]undecan-1-one] are 1360 nM and 178 nM.
With `Cc1noc(-c2ccccc2)c1CN1CCCC2(CCN(c3cnc4ccccc4n3)CC2)C1=O` [Example 32, 2-((3-methyl-5-phenylisoxazol-4-yl)methyl)-9-(quinoxalin-2-yl)-2,9-diazaspiro[5.5]undecan-1-one], the values for the Ki at hOx1R and at hOx2R were 1280 nM and 138 nM, respectively.
Take `O=C1N(Cc2cnc3ccccn23)CCCC12CCN(c1cnc3ccccc3n1)CC2` [Example 70, 2-(imidazo[1,2-a]pyridin-3-ylmethyl)-9-(quinoxalin-2-yl)-2,9-diazaspiro[5.5]undecan-1-one]: the Ki at hOx1R is 3420 nM; at hOx2R it was 258 nM.
Regarding `N#Cc1cc(CN2CCCC3(CCN(c4cnc5ccccc5n4)CC3)C2=O)ccc1F` [Example 94, 2-fluoro-5-((1-oxo-9-(quinoxalin-2-yl)-2,9-diazaspiro[5.5]undecan-2-yl)methyl)benzonitrile], the Ki came to 1700 nM at hOx1R and 282 nM on hOx2R.
As to `Cc1ccc2[nH]c(N3CCC4(CCCN(Cc5c[nH]c6ccccc56)C4=O)CC3)nc2c1` [Example 163, 2-((1H-indol-3-yl)methyl)-9-(5-methyl-1H-benzo[d]imidazol-2-yl)-2,9-diazaspiro[5.5]undecan-1-one], the inhibition at 10 µM on hOx1R came to 23%. Besides, the Ki at hOx2R was found to be 483 nM.
With `O=C1N(Cc2cccc(-n3cccc3)c2)CCCC12CCN(c1cnc3ccccc3n1)CC2` [Example 35, 2-(3-(1H-pyrrol-1-yl)benzyl)-9-(quinoxalin-2-yl)-2,9-diazaspiro[5.5]undecan-1-one], at hOx1R, the inhibition at 10 µM came to 26%. Besides, the Ki on hOx2R turned out to be 272 nM.
On the same counts, the results for `O=C1N(Cc2nccn2Cc2ccccc2)CCCC12CCN(c1cnc3ccccc3n1)CC2` [Example 86, 2-((1-benzyl-1H-imidazol-2-yl)methyl)-9-(quinoxalin-2-yl)-2,9-diazaspiro[5.5]undecan-1-one] are 47% and 372 nM.
With `Cc1cc(CN2CCCC3(CCN(c4cnc5ccccc5n4)CC3)C2=O)ccn1` [Example 68, 2-((2-methylpyridin-4-yl)methyl)-9-(quinoxalin-2-yl)-2,9-diazaspiro[5.5]undecan-1-one], the inhibition at 10 µM on hOx1R is 29%. In addition, the Ki at hOx2R turned out to be 830 nM.
Turning to `COc1cccc(CN2CCCC3(CCN(c4cnc5ccccc5n4)CC3)C2=O)c1OC` [Example 18, 2-(2,3-dimethoxybenzyl)-9-(quinoxalin-2-yl)-2,9-diazaspiro[5.5]undecan-1-one], the inhibition at 10 µM on hOx1R was 3%. Moreover, at hOx2R, the inhibition constant Ki was 782 nM.
With `Cc1nc2ccccn2c1CN1CCCC2(CCN(c3cnc4ccccc4n3)CC2)C1=O` [Example 71, 2-((2-methylimidazo[1,2-a]pyridin-3-yl)methyl)-9-(quinoxalin-2-yl)-2,9-diazaspiro[5.5]undecan-1-one], the results for the Ki at hOx1R and on hOx2R were 2160 nM and 466 nM, respectively.
Consider `COc1cccc(CN2CCCC3(CCN(c4cnc5ccccc5n4)CC3)C2=O)c1F` [Example 102, 2-(2-fluoro-3-methoxybenzyl)-9-(quinoxalin-2-yl)-2,9-diazaspiro[5.5]undecan-1-one], for which the Ki on hOx1R was found to be 2430 nM; on hOx2R it was 225 nM.
For `O=C1N(Cc2ccc(Cl)nc2)CCCC12CCN(c1cnc3ccccc3n1)CC2` [Example 78, 2-((6-chloropyridin-3-yl)methyl)-9-(quinoxalin-2-yl)-2,9-diazaspiro[5.5]undecan-1-one], the results for the inhibition at 10 µM at hOx1R and on hOx2R were 15% and 32%, respectively.
